# US20200078459A1, “NEAR INFRARED (NIR) PHOTODYNAMIC THERAPY (PDT) IN COMBINATION WITH CHEMOTHERAPY” (Health Research, Inc., priority 2016, published 2020)
# Where two headings read alike, the source gives them in different places.
# Legend:
# [1] = test system: non-small cell carcinoma (NSCLC) xenografts; settings: for antitumor activity of the alone drug: no PDT
# Method: 3) Tumor transplantation: the xenografts used for antitumor activity were transplanted subcutaneously. The treatment was initiated 7-10 days post transplantation. 4) Tumor measurement: two axes (mm) of tumor (L, longest axis; W, shortest axis) were measured with the aid of a Vernier caliper. Tumor weight (mg) was estimated as a formula tumor weight ½ (L×W2). Tumor measurements were taken after the scabbing healed post PDT and at least three times a week for post therapy and twice a week therefore. 5) Tumor regression: complete tumor regression (CR) was defined as the inability to detect tumor by palpation at the initial site of tumor appearance for more than two months post therapy. […] Partial tumor regression (PR) was defined as ≥50% reduction in initial tumor size. Normally, 5 mice per treatment group were included in these experiment groups and repeated at least twice.
# PDT of Subcutaneous Tumors—Tumor bearing mice are injected via the tail vein with HPPH or derivatives at doses that are non-toxic unless exposed to light. For tail vein injections, mice were gently restrained in approved holders and their tails were briefly (less than 1 minute) dipped in warm sterile water (˜40° C.). Photosensitizers are injected in a volume of less than 0.2 mL into the tail vein using a 27-gauge needle.
# The photosensitizers, at 24 hours (or the optimal time determined by optical imaging) after administration of HPPH or derivatives, the animals were partially restrained allowing leg movement, in specially designed holders without anesthesia.
# Tumors are exposed to visible light (1 cm diameter) at power densities of less than 100 mW/cm^2. The light sources are either a dye laser (with a tunable range of 600 to 800 nm), at the optimal excitation wavelength for the individual photosensitizer; or a pulsed laser with a range of 460 to 800 nm. The treatment will vary, depending on the light dose (J/cm^2) and fluence rate (mW/cm^2) required, but usually is for approximately 30 minutes.
# After light exposure, the mice are monitored closely for at least 1 hour and then daily until the re-growing tumors reach no more than 2 cm in the greatest dimension or for a maximum of 60 days (post treatment) at which time they are euthanized. All animals will be euthanized within 90 days of tumor implantation.
# [2] = Skin phototoxicity of the photosensitizers; type: in vivo; settings: in contrast to most of the clinically approved PS
# [3] = test system: skin cancer (basal cell carcinoma) early lung cancer and esophageal cancers; test: Phase I human clinical trials of HPPH; type: in vivo
# [4] = test system: FaDu head and neck cancer xenografts; test: PDT response and antitumor activity in SCID mice bearing FaDu head and neck cancer xenografts; type: in vivo
# Method: First dose of irinotecan: 1 h post-PDT treatment.
# Human head and neck cancer xenografts (FaDu and H&N 85-1)
# The treatment was initiated 7-10 post transplantation.
# [5] = patients advised to be away from sunlight at least 6-8 weeks after the light treatment; cited from earlier work
# [6] = 5 mg/kg weekly×3 doses, in combination with HPPH or Photobac with PDT, 8/10 mice
compound,measurement,setting,value
"N.N.[Cl][Pt][Cl] [Cisplatin, cisplatin]",CR (complete tumor regression),[1]; [6],80%
same,antitumor activity of the alone drug,[1]; 5 mg/kg weekly×3 doses,not effective
"COc1cccc2c1C(=O)c1c(O)c3c(c(O)c1C2=O)C[C@@](O)(C(=O)CO)C[C@@H]3O[C@H]1C[C@H](N)[C@H](O)[C@H](C)O1 [Doxorubicin, doxorubicin]",CR (complete tumor regression),[1]; [6],80%
same,antitumor activity of the alone drug,[1]; 5 mg/kg weekly×3 doses,not effective
same,toxicity,"[1]; mouse, in vivo",no significant effects
"CCCCCCOC(C)c1c(C)c2cc3nc(c4c5[nH]c(cc6nc(cc1[nH]2)C(C)=C6CC)c(C)c5C(=O)C4)[C@@H](CCC(=O)O)[C@@H]3C (some centres unmarked) [HPPH, 3-(1′-hexyloxy)ethyl-3-devinylpyropheopphorbide-a]",skin photo toxicity,[2],do not produce any skin photo toxicity
same,CR (complete tumor regression),"[1]; PDT with HPPH, without chemotherapy",20%
same,effectiveness in treatment of cancer,[3],effective
"CCc1c2c(nc3ccc(OC(=O)N4CCC(N5CCCCC5)CC4)cc13)-c1cc3c(c(=O)n1C2)COC(=O)[C@]3(O)CC [Irinotecan, irinotecan]",CR (complete tumor regression),"[4]; 100 mg/kg weekly×4 doses, in combination with HPPH and PDT, 11/15 mice",73%
same,toxicity,"[4]; PDT ± chemotherapy, in the used doses",no significant effects
same,antitumor activity of the alone drug,"[4]; drug alone, 100 mg/kg weekly×4 doses, no PDT",not effective
same,CR (complete tumor regression),"[4]; in combination with Photobac (PDT), 3/5 mice",60%
"CCCCOC(C)c1c(C)c2cc3nc(c4c5[nH]c(cc6nc(cc1[nH]2)C(C)C6CC)c(C)c5C(=O)N(CCCC)C4=O)C(CCC(=O)OC)C3C (centres unmarked) [Photobac, 3-(1′-butyloxy)ethyl-3-deacetyl-bacteriopurpurin-18-N-butyl-imide methyl ester]",skin photo toxicity,[2],do not produce any skin photo toxicity
Photofrin,skin phototoxicity in patients,[5],severe skin phototoxicity
